Test results published in patent US5804415A, “Prostaglandin E receptors, their DNA and production” (Takeda Chemical Industries, Ltd., priority 1992, dated 1998).

Assays:
[1] = biological target: PGE2 receptor (EP2) (MP412) (Mus musculus, UniProt P32240); assay: Inhibition of [3H]-PGE2 binding to MP412-transfected COS-1 cell membranes; conditions: for order of inhibition of specific [3H]-PGE2 binding by unlabeled PG: FIG. 7; for inhibition of PGE2 binding by subtype ligands: FIG. 8
Procedure: Mouse mastocytoma P-815 cell cDNA library carring cDNAs larger than 2.0 kb was prepared according to Example 1 (2). The probe DNA was prepared by PCR using mouse EP3 cDNA as a template; this 482 bp fragment covers the transmembrane segments I-IV region of the EP3 receptor. The 2.0×10^5 clones derived from the cDNA library were screened under either high (Sambrook) or low stringency condition. […] This cDNA was transfected into COS-1 cells according to the same manner as in Example 1 (3).
After the COS-1 cells carring the plasmid DNA obtained in above (1) were cultured for 72 h, cells were harvested and cell membranes were prepared.

[2] = biological target: T1, PGE2 receptor (EP3), subtype EP3α (MP660) (Mus musculus, UniProt P30557); assay: Inhibition of [3H]-PGE2 binding to MP660-transfected COS-1 cell membranes; ligand-binding test; conditions: for order of inhibition of [3H]PGE2 binding by unlabeled PGs: FIG. 2a; for competition for [3H]PGE2 binding: PGE analogues; for competition for [3H]PGE2 binding / potency in competing for [3H]PGE2 binding relative to PGE2: FIG. 2b
T1 sequence (P30557 1-365): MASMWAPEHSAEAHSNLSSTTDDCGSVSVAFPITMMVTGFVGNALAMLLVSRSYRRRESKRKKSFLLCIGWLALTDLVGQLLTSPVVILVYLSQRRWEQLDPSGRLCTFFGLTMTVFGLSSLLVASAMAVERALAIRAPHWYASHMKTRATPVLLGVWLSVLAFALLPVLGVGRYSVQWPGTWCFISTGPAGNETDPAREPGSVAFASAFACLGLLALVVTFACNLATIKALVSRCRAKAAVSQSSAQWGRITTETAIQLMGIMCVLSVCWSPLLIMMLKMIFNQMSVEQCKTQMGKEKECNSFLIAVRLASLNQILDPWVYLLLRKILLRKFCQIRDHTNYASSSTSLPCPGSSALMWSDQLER
Text: (§1) The cDNA of MP660 was cleaved out with EcoRI and inserted to pcDNAI (Invitrogen) and subcloned, followed by transfection of this plasmid DNA to COS-1 cells by the DEAE-dextran method [D. J. Sussmann and G. Milman, Mol. Cell. Biol., 4, 1641 (1984)]. After 72-hour cultivation, cells were harvested and cell membranes were separated [M. Hirata al., Nature, 349, 617 (1991)].

EP3β receptor (MP653) = assay: Ligand-binding assay, [3H]-PGE2 binding to MP653-transfected COS-1 cell membranes; set-up: species or system mouse
Text: as §1, with “MP653” for “MP660”, “Hirata et” for “Hirata”, “(1991)]. […] Also, the PGE2 receptor obtained was identified as the subtype EP3β receptor. The result of inhibitory activities of various ligands on the binding of [^3 H]-PGE2 to the MP653-transfected cell membrance was substantially the same as on the binding of [^3 H]-PGE2 to the MP660--transfected cell membrance obtained in Example 1.” for “(1991)].”

[3] = tested on: membranes of untransfected cells; assay: [3H]-PGE2 binding to membranes of untransfected COS-1 cells (control); conditions: untransfected COS-1 cell membranes
Text: as §1, with “(1991)]. […] Also, the PGE2 receptor obtained was identified as the subtype EP3α receptor.” for “(1991)].”
After the COS-1 cells carring the plasmid DNA obtained in above (1) were cultured for 72 h, cells were harvested and cell membranes were prepared. […] The lack of binding activity of butaprost in mouse EP2 might indicate that the action of butaprost is species specific or there may be other forms of EP2 receptor subtype.

[4] = biological target: T2, EP3α receptor (MP660/KCR cells) (Mus musculus, UniProt P30557); assay: Forskolin-stimulated cAMP synthesis in CHO cells stably expressing EP3α (MP660/KCR cells); type: cell-based
T2 construct: A full-length DNA clone having a 1,095 bp open reading frame, MP660, was thus obtained; expressed in transfected cells; host or cells: CHO-dhfr (lacking dihydrofolate reductase activity) cells; FERM BP-3803)
T2 sequence (P30557 1-365): T1 sequence (P30557 1-365)
Procedure: (§2) To obtain cells that stably express the receptor gene, cDNA transfection was conducted by the method described by Nakajima et al. [J. Biol. Chem., 267, 2437 (1992)] to establish a cell line. Specifically, the EcoRI fragment of MP660 was inserted to pdKCR-dhfr [S. Oikawa et al., Biochem. Biophys. Res. Commun., 164, 39 (1989)], a eukaryotic cell expression vector having the mouse dhfr gene as a selection marker. This plasmid was transfected to CHO-dhfr (lacking dihydrofolate reductase activity) cells [G. Urlaub and L. A. Chasin, Proc. Natl. Acad. Sci. USA, 77, 4216 (1980)] by the calcium phosphate method [F. L. Graham and A. J. van der Eb, Virology, 52, 456 (1973)]. The cells were subjected to selection culture in α-modified Eagle's medium [S. Oikawa et al., Biochem. Biophys. Res. Commun., 164, 39 (1989)] which contained no ribonucleoside and deoxyribonucleoside and which contained 100 unit/ml penicillin, 100 μg/ml streptomycin and 10% dialyzed bovine fetal serum (Cell Culture Laboratories). The cells which proliferated were cloned and clone cells were obtained. EP3α receptor cDNA transfection was confirmed by the RNA blotting method.

[5] = tested on: EP3β receptor (MP653/KCR cells); assay: Forskolin-stimulated cAMP synthesis in CHO cells stably expressing EP3β (MP653/KCR cells); type: cell-based, mouse
Procedure: as §2, with “of MP653” for “of MP660”, “to CHO-dhfr(lacking” for “to CHO-dhfr (lacking”, “method [(F.” for “method [F.”, “cloned to have” for “cloned and”, “clone cells. EP3β” for “clone cells were obtained. EP3α”, “method. Using thus-obtained CHO cells which constantly express the EP3β receptor [MP653/KCR cells; IFO 50397, FERM BP-4183], the effect of PGE2 on forskolin-stimulated cAMP synthesis or M&B28, 767, an EP3 -specific agonist was assessed.” for “method.”

EP2 receptor (MP412) = biological target: T3, EP2 receptor (MP412) (Mus musculus, UniProt P32240); assay: cAMP assay in MP412-transfected COS-1 cells; type: cell-based
T3 construct: cAMP and inositol phosphate tests
Procedure: For cAMP assay, the plasmid DNA was transfected into COS-1 cells by the lipofection method (P. L. Felgner et al., Proc. Natl. Acad. Sci., 84, 7413 (1987)) and cultured for 72 h in a 24-well plate. Cyclic AMP levels in the cells were determined according to the method of Nakajima et al. (J. Biol. Chem. 267, 2437 (1992)).

EP2 = conditions: literature; cited from earlier work

Chain of PGE2 receptor (EP2) (MP412) (P32240 whole entry, the tested form may be a part): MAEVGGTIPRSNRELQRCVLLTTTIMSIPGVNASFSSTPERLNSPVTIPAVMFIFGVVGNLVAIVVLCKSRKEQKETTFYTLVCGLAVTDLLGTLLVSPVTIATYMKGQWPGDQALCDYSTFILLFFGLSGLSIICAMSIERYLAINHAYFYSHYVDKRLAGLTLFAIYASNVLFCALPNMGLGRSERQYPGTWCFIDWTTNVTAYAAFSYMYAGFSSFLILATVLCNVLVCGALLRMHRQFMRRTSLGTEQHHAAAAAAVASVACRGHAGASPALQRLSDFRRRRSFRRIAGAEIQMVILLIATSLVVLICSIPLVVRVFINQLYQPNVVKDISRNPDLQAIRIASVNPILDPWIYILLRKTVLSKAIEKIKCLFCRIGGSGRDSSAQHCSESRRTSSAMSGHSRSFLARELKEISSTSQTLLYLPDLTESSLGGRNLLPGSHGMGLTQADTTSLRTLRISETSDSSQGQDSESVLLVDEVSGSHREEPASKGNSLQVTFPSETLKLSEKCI
T3 sequence (P32240 whole entry): as the sequence (P32240 whole entry, the tested form may be a part) above

Row | inhibition of PGE2 binding by subtype ligands [1] | Structure (SMILES) | order of inhibition of specific [3H]-PGE2 binding by unlabeled PG [1] | order of inhibition of [3H]PGE2 binding by unlabeled PGs [2] | competition for [3H]PGE2 binding [2] | other results
1 |  | CC#CCC(C)[C@H](O)/C=C/[C@@H]1[C@H]2C/C(=C/CCCC(=O)O)C[C@H]2C[C@H]1O (some centres unmarked) [iloprost] | PGE2 (.largecircle.)=PGE1 (.circle-solid.)>>iloprost(.box-solid.), a stable PGI2 analogue ≥PGF2α (Δ)PGD2 (.quadrature.) | PGE2 =PGE1 >iloprost, a PGI2 analogue>PGF2α >PGD2 |  | 
2 | did not inhibit it | CS(=O)(=O)NC(=O)CCC/C=C\C[C@H]1C(=O)C[C@@H](O)[C@@H]1/C=C/[C@@H](O)COc1ccccc1 [sulprostone] |  |  |  | 
3 |  | CCCCC[C@H](O)/C=C/[C@H]1[C@H](O)CC(=O)[C@@H]1C/C=C\CCCC(=O)O [[3H]-PGE2] |  |  |  | specific binding of [3H]-labeled prostaglandin [1]: found to show specific binding; specific binding of [3H]-labeled prostaglandin (EP3β receptor (MP653)): found to show specific binding; binding to membranes of untransfected cells ([3]; listed as [^3 H]-PGE2): almost negligible; binding to membranes of untransfected cells ([3]; listed as [^3 H]PGE2): did not bind to membranes of untransfected cells; specific binding of [3H]-labeled prostaglandin [2]: found to show specific binding
4 |  | CCCCC[C@H](O)/C=C/[C@H]1[C@H](O)CC(=O)[C@@H]1CCCCCCC(=O)O [PGE1] | PGE2 (.largecircle.)=PGE1 (.circle-solid.)>>iloprost(.box-solid.), a stable PGI2 analogue ≥PGF2α (Δ)PGD2 (.quadrature.) | PGE2 =PGE1 >iloprost, a PGI2 analogue>PGF2α >PGD2 |  | 
5 | inhibited | CCCCC(C)(O)C/C=C/[C@H]1[C@H](O)CC(=O)[C@@H]1CCCCCCC(=O)OC (mixture of isomers) [misoprostol] |  |  |  | 
6 | did not inhibit it | CC(=O)NNC(=O)N1Cc2ccccc2Oc2ccc(Cl)cc21 [SC-19220] |  |  | no competition was found at all | 
7 | did not inhibit it | CCCC1([C@H](O)C/C=C/[C@H]2[C@H](O)CC(=O)[C@@H]2CCCCCCC(=O)OC)CCC1 [butaprost] |  |  | no competition was found at all | 
8 |  | CCCCC[C@H](O)/C=C/[C@H]1[C@H](O)CC(=O)[C@@H]1C/C=C\CCCC(=O)O [PGE2, prostaglandin E2] | PGE2 (.largecircle.)=PGE1 (.circle-solid.)>>iloprost(.box-solid.), a stable PGI2 analogue ≥PGF2α (Δ)PGD2 (.quadrature.) | PGE2 =PGE1 >iloprost, a PGI2 analogue>PGF2α >PGD2 |  | effect on forskolin-induced cAMP synthesis/accumulation ([4]; FIG. 3): dosedependent decrease; IC50 ([4]; forskolin-induced, FIG. 3, read-out: IC50 (inhibition of forskolin-induced cAMP synthesis)): 0.1 nM; effect on forskolin-stimulated cAMP synthesis [5]: cAMP synthesis in MP653/KCR cells is inhibited; inhibition of forskolin-induced cAMP formation (EP2 receptor (MP412); forskolin): neither inhibited forskolin-induced cAMP formation; cAMP level (EP2 receptor (MP412); no forskolin stated, FIG. 9): dose-dependently increased cAMP level
9 | more weakly | O=C(O)CCCCCC[C@H]1C(=O)CC[C@@H]1/C=C/[C@@H](O)COc1ccccc1 [M&B 28,767] |  |  | specifically competed for the[^3 H]PGE2 binding with equal potency | effect on forskolin-induced cAMP synthesis/accumulation ([4]; FIG. 3): inhibited forskolin-induced cAMP synthesis; potency in inhibiting forskolin-induced cAMP synthesis relative to PGE2 ([4]; FIG. 3): more potent than (PGE2; effect on forskolin-stimulated cAMP synthesis [5]: cAMP synthesis in MP653/KCR cells is inhibited; potency in competing for [3H]PGE2 binding relative to PGE2 [2]: more potent than PGE2 itself; cross-reaction to EP2 (EP2): weak cross-reaction
10 |  | CCCCC[C@H](O)/C=C/[C@H]1C(=O)C[C@H](O)[C@@H]1C/C=C\CCCC(=O)O [PGD2] | PGE2 (.largecircle.)=PGE1 (.circle-solid.)>>iloprost(.box-solid.), a stable PGI2 analogue ≥PGF2α (Δ)PGD2 (.quadrature.) | PGE2 =PGE1 >iloprost, a PGI2 analogue>PGF2α >PGD2 |  | 
11 |  | O=C(CC/C=C\CC[C@H]1C(=O)C[C@@H](O)[C@@H]1OCC(O)COc1ccccc1)Oc1ccc(NC(=O)c2ccccc2)cc1 (some centres unmarked) [GR 63799X] |  |  | specifically competed for the[^3 H]PGE2 binding with equal potency | potency in competing for [3H]PGE2 binding relative to PGE2 [2]: more potent than PGE2 itself
12 |  | CCCCC[C@H](O)/C=C/[C@@H]1[C@@H](C/C=C\CCCC(=O)O)[C@@H](O)C[C@H]1O [PGF2α] | PGE2 (.largecircle.)=PGE1 (.circle-solid.)>>iloprost(.box-solid.), a stable PGI2 analogue ≥PGF2α (Δ)PGD2 (.quadrature.) | PGE2 =PGE1 >iloprost, a PGI2 analogue>PGF2α >PGD2 |  | 
